Results: patent US8580764B2, “Combinational compositions and methods for treatment of cancer” (ArQule, Inc., priority 2010, dated 2013)
Read-outs that look alike come from different tables or passages of the source.

Legend:
[1] = system: cancer cells; test: Cell cycle analysis of dosing regimen A (FIG. 8); type: cell-based; details: dosing regimen A of FIG. 3
Experimental: (§1) Cells were plated on day 0.

[2] = system: human tumors; details: multiple mouse xenograft efficacy studies; cited from earlier work
[3] = target: T1, c-Met (Homo sapiens, UniProt P08581); details: c-Met expressing cancer cell lines; cited from earlier work
T1 construct: Exposure of c-Met expressing cancer cell lines; endogenous in cells
T1 sequence (P08581 25-1390): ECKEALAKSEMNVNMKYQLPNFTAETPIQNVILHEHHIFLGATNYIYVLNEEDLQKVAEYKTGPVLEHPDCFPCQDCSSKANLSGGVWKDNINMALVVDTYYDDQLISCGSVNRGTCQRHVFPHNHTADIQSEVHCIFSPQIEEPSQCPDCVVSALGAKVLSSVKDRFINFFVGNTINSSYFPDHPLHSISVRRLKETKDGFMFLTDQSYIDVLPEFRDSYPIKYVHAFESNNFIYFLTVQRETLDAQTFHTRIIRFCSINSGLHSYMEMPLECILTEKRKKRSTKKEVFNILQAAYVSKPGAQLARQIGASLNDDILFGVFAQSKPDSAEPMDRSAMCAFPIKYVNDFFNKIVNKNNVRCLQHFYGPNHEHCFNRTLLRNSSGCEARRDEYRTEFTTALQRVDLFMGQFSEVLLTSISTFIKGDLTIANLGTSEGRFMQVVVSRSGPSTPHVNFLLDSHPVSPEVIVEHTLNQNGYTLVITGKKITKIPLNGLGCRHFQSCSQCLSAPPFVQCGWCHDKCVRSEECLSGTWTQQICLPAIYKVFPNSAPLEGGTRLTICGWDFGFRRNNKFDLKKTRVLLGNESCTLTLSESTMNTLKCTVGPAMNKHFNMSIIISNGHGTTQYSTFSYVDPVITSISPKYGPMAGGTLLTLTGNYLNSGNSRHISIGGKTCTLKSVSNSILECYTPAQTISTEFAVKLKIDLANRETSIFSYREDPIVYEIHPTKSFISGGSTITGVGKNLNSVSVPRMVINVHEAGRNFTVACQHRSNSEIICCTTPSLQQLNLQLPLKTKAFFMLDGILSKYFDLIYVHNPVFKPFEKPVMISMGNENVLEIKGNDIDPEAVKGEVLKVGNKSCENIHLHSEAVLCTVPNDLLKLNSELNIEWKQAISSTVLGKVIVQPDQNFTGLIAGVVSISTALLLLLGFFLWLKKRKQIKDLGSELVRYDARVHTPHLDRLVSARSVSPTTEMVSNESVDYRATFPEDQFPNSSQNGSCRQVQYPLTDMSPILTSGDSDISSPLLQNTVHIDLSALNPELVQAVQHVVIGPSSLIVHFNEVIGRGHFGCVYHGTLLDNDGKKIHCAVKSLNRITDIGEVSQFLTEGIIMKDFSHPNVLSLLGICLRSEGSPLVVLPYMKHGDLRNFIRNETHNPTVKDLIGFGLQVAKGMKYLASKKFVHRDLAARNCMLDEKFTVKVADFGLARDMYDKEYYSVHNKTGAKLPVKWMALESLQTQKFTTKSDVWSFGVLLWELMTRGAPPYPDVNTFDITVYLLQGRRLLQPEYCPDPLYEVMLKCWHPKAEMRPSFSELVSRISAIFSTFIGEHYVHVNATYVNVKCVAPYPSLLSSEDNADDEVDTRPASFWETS

[4] = system: cancer cells; details: cited from earlier work
[5] = system: cell cycle check point; test: Activation of cell cycle check point during dosing regimen A (FIG. 9); type: cell-based; details: dosing regimen A of FIG. 3
Experimental: as §1

| SMILES | cell cycle arrest [1] | growth of human tumors [2] | phospho-c-Met levels and cell death [3] | cell cycle arrest [4] | activation of cell cycle check point [5] |
| --- | --- | --- | --- | --- | --- |
| O=C1NC(=O)[C@@H](c2cn3c4c(cccc24)CCC3)[C@@H]1c1c[nH]c2ccccc12 [Agent A, (−)-trans-3-(5,6-dihydro-4H-pyrrolo[3,2,1-ij]quinolin-1-yl)-4-(1H-indol-3-yl)pyrrolidine-2,5-dione] | G2/M arrest | inhibited the growth of human tumors | decrease in phospho-c-Met levels with eventual apoptotic cell death | – | – |
| Nc1ccn([C@@H]2O[C@H](CO)[C@@H](O)C2(F)F)c(=O)n1 [gemcitabine] | S-phase arrest | – | – | arrest cancer cells in G1/S phase | activation of cell cycle check point |
